From PMC6108835, “Target-Based Discovery of an Inhibitor of the Regulatory Phosphatase PPP1R15B” (Cell, 2018)

Columns and labels:
R15B^340–698 = target: T1, R15B^340–698 (Homo sapiens, UniProt Q5SWA1); test: eIF2α pull down with MBP-tagged R15B; format: biochemical; settings: Raphin1 200 μM, P-eIF2α 1 μM
T1 construct: made in house; host or cells: E. coli BL21-Gold (DE3) pLysS
Protocol: Recombinant eIF2α was produced as described in [Ito et al. (2004)] and pull down experiments were carried out as previously described ([Carrara et al., 2017]). Amylose beads (New England BioLabs) were pre-equilibrated with interaction buffer (50 mM Tris pH 7.4, 200 mM NaCl, 0.05% Tween20). 20 μL amylose beads were incubated with purified MBP-tagged R15s (200 nM), P-eIF2α (1 μM) as appropriate, plus 200 μM Raphin1, or DMSO vehicle in a total volume of 200 μL. Input samples (5%) was removed at this step, and added to 4% SDS-Laemmli sample buffer. Beads were incubated for 10 min at 4°C with 20 rpm gentle rotation. The beads were washed 5 × 1 mL with interaction buffer, transferred to a fresh tube and finally resuspended with 50 μL 4% SDS-Laemmli sample buffer. Eluded beads were boiled and then run on 4%–12% NuPAGE Bis-Tris gels (ThermoFisher Scientific). Anti-MBP HRP (New England BioLabs (#E8038); 1:5,000) (to probe for R15s) and anti-eIF2α (AbCam (#ab26197); 1:1,000) antibodies were used for immunoblotting analyses of samples.

R15b −/− cells = test: eIF2α phosphorylation and translation rates in R15b −/− MEF cells; format: cell-based, mouse; settings: 10 μM
Protocol: HeLa or MEF cells (90,000 cells/mL) were plated in 12-well plates (1 mL/well). The following day cells were treated as indicated; the medium was removed, fresh medium containing compound added and incubated at 37°C for the times indicated. The time course was performed in reverse order to facilitate collecting all samples at the same time. At the end of treatment cells were washed two times with ice-cold PBS and lysed in 150 μL Laemmli Buffer. Lysates were transferred to 1.5 mL eppendorf tubes, boiled at 95°C for 5 min, sonicated and resolved on Bolt SDS-PAGE 4%–12% Bis-Tris gels (ThermoFisher Scientific). Proteins were transferred to the nitrocellulose membrane using the iBlot 2 system (ThermoFisher Scientific). Membrane was blocked in 5% skimmed milk for 30 min and then probed with primary antibodies followed by incubation with the appropriate horseradish peroxidase-conjugated secondary antibodies (Promega). Proteins were visualized using ECL Prime (GE Healthcare) and imaged in the Chemi-Smart 5000 (Vilber-Lourmat, France) or ChemiDoc Touch (BioRad). Bands were quantified using ImageJ (NIH, USA). […]
HeLa or MEF cells (90,000 cells/mL) were plated in 12-well plates (1 mL/well). […] The gels were then exposed to a Storage Phosphor Screen (GE Healthcare) and analyzed by phosphorimaging using a Typhoon Imager Scanner (GE Healthcare).

[1] = system: eIF2α phosphorylation (HeLa cells); test: Protein analyses on immunoblots, HeLa cells; format: cell-based, human; settings: for eIF2α phosphorylation: 0-10 h
Protocol: HeLa or MEF cells (90,000 cells/mL) were plated in 12-well plates (1 mL/well). The following day cells were treated as indicated; the medium was removed, fresh medium containing compound added and incubated at 37°C for the times indicated. The time course was performed in reverse order to facilitate collecting all samples at the same time. At the end of treatment cells were washed two times with ice-cold PBS and lysed in 150 μL Laemmli Buffer. Lysates were transferred to 1.5 mL eppendorf tubes, boiled at 95°C for 5 min, sonicated and resolved on Bolt SDS-PAGE 4%–12% Bis-Tris gels (ThermoFisher Scientific). Proteins were transferred to the nitrocellulose membrane using the iBlot 2 system (ThermoFisher Scientific). Membrane was blocked in 5% skimmed milk for 30 min and then probed with primary antibodies followed by incubation with the appropriate horseradish peroxidase-conjugated secondary antibodies (Promega). Proteins were visualized using ECL Prime (GE Healthcare) and imaged in the Chemi-Smart 5000 (Vilber-Lourmat, France) or ChemiDoc Touch (BioRad). Bands were quantified using ImageJ (NIH, USA). The following primary antibodies were used: e-IF2α-P (ThermoFisher Scientific (#44-728G), 1:1,000), e-IF2α (Abcam (#ab5369), 1:1,000), tubulin (Sigma-Aldrich (#T5168), 1:4,000), BiP (BD Biosciences PharMingen (#610978), 1:1,000), ATF4 (Santa Cruz Biotechnology (#sc-200), 1:500), Ppp1r15a (Proteintech (#10449-1-AP), 1:1,000), Ppp1r15b (Proteintech (#14634-1-AP), 1:1,000) and CHOP (ABR Affinity BioReagents (#MA1-250), 1:1,000).

brains of R15a −/− mice = test: Monitoring translation rates in vivo, brains of R15a −/− mice; set-up: species or system mouse; settings: 40 mg/kg
Protocol: 3 months old treatment- and test-naive C57BL/6J males were treated as indicated. 30 min before the end of treatment mice were injected intraperitoneally with 0.75 mCi/kg radioactive label – 75% ^35S-methionine + 25% ^35S-cystine (Hartmann Analytic). At the end of treatment mice were culled by cervical dislocation, brains were extracted, fresh-frozen in liquid nitrogen and kept at −80°C until use. Tissue was homogenized and lysed in Laemmli Buffer (1 mL for 0.5 mg tissue). Lysates were boiled at 95°C for 5 min, sonicated and resolved on Bolt SDS-PAGE 4%–12% Bis-Tris gels (ThermoFisher Scientific). Gels were then stained with InstantBlue (Expedeon) and after the gels had been imaged they were transferred to a 20% ethanol, 7% acetic acid, 4% glycerol solution for 10 min. This was to prevent the gels from cracking while drying. The gels were transferred to filter paper and dried using a gel dryer. The gels were then exposed to a Storage Phosphor Screen (GE Healthcare) and analyzed by phosphorimaging using a Typhoon Imager Scanner (GE Healthcare).

[2] = Pharmacokinetics after single oral administration in mice; format: in vivo; settings: mouse
Protocol: The acetate salts of Raphin1 or GBZ were dissolved in water and sonicated for 10 min. The solution was aliquoted and kept at −20°C until use. Once thawed a tube was kept at 4°C and used within 24 hr. The compounds were administered by oral gavage.
Raphin1 was administered at 2 mg/kg (unless otherwise specified). Mice received a single dose or were treated chronically – one time per day. Control mice were treated with vehicle (water) only.
Pharmacokinetics studies were performed by XenoGesis Ldt. Raphin1 was administrated orally in 6 weeks old treatment- and test-naive C57BL/6J males. Plasma samples were prepared by protein precipitation with methanol containing internal standards. Tissues were weighed and prepared by homogenization (1:3 in phosphate buffered saline) and protein precipitated with methanol containing internal standard. Following the addition of methanol, plasma and tissue samples were placed at −20°C for ≥ 1 hr (or overnight) to allow proteins to precipitate. The samples were then centrifuged at 2,500 x g (3,400 rpm) for 20 min at 4°C. The supernatants were analyzed by LC-MS/MS.

T1 sequence (Q5SWA1 340-698): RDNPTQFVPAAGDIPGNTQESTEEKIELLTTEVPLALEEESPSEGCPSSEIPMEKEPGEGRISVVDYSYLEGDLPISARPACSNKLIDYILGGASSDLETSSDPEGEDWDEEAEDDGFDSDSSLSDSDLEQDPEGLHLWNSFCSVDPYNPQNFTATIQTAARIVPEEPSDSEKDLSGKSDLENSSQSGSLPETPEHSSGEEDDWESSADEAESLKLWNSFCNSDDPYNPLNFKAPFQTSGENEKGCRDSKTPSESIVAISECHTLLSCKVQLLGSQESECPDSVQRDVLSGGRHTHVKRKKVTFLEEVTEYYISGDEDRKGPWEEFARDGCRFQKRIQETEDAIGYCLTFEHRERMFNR

## [H]/N=C(\N)NN=Cc1cccc(Cl)c1Cl [Raphin1, (E)-2-(2,3-dichlorobenzylidene)hydrazine-1-carboximidamide]
R15B^340–698
  Recruitment of eIF2α to R15B: decreased
R15b −/− cells
  Measurable effects on eIF2α phosphorylation and translation: abolished
[1]; 10 μM
  ATF4 and R15A induction: induced
  Stress marker BiP: did not increase
[1]; 20 μM
  eIF2α phosphorylation: persistent phosphorylation
[1]; unstressed, 10 μM
  eIF2α phosphorylation: rapidly and transiently increased
Brains of R15a −/− mice
  Translation recovery in the brains (in words): recovery was reduced
[2]; male, C57BL/6J, brain, single oral dose 2 mg/kg
  half-life: 4 to 6 h
[2]
  Oral bioavailability (in words): orally bioavailable
[2]; single oral dose 2 mg/kg
  Blood-brain barrier crossing: crossed the blood-brain barrier
  Peak concentration in the brain: ~1.5 µM
